43 compounds from US9440941B2, “Substituted chroman-6-yloxy-cycloalkanes and their use as pharmaceuticals” (SANOFI, priority 2013, dated 2016) can be followed below.

Where a name gives a salt, the structure may show the parent alone. Read-outs that look alike come from different tables or passages of the source.

The assay deals with T1, human NCX1 (Homo sapiens, UniProt P32418).
T1 construct: expressed in transfected cells
Description: Inhibition of Ca2+ influx into cells (NCX1 reverse mode), FLIPR Fluo-4 assay. It counts as cell-based. As to conditions: for IC50: inhibition of NCX1 in reverse mode (Ca2+ influx into cells), read-out: NCX1rv IC50; for inhibition at 10 µM: NCX1 reverse mode, IC50 value not determined. The method, boiled down:
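Ca2+ influx via reverse-mode exchange was evoked with gramicidin (20 µM final) after 45 min compound exposure at 16 °C in stably transfected CHO cells. Fluo-4 signal (520 nm) was followed on FLIPR at 2 s intervals. Max–min fluorescence gave percentage inhibition, from which IC50 was calculated.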

Turning to `Fc1ccccc1C1CCc2cc(OC3CCC(NCC4CCCO4)CC3)ccc2O1` (stereo not shown) [compound 216], the IC50 is 1700 nM. For `Cc1ccccc1C1CCc2cc(O[C@H]3CC[C@H](C(=O)Nc4ccccn4)CC3)ccc2O1` (relative stereo) [compound 266], the IC50 came to 300 nM. For “N-(1,3-Dimethylbutyl)-4-(2-phenylchroman-6-yloxy)-cyclohexylamine [compound 141]”, the IC50 was determined as 1000 nM. Take `Cc1nc(CNC2CCC(Oc3ccc4c(c3)CCC(c3ccccc3)O4)CC2)no1` (stereo not shown) [compound 97]: the IC50 amounted to 500 nM. Same read-out and setting: then `CCCC1(O)CCC(Oc2ccc3c(c2)CCC(c2ccccc2)O3)CC1` (stereo not shown) [compound 90, 4-(2-Phenylchroman-6-yloxy)-1-propyl-cyclohexanol], with 200 nM; and `O=C(NCCO)C1CCC(Oc2ccc3c(c2)CC[C@@H](c2ccccc2)O3)CC1` (stereo partly drawn) [compound 102, N-(2-Hydroxyethyl)-4-((S)-2-phenylchroman-6-yloxy)-cyclohexanecarboxamide], with 1100 nM; and `Cc1noc(C)c1C(=O)N[C@H]1CC[C@H](Oc2ccc3c(c2)CCC(c2ccccc2F)O3)CC1` (relative stereo) [compound 242], with 500 nM. In the case of `CCn1nccc1CNC(=O)C1CCC(Oc2ccc3c(c2)CCC(c2ccccc2)O3)CC1` (single isomer, unassigned; stereoisomer 2) [compound 94, N-(2-Ethyl-2H-pyrazol-3-ylmethyl)-[cis-4-(2-phenylchroman-6-yloxy)]-cyclohexanecarboxamide, stereoisomer 2 (2)], the IC50 worked out at 1600 nM.

For the compound `Cc1cccc(C)c1C1CCc2cc(O[C@H]3CC[C@H](NCC4CCOC4)CC3)ccc2O1` (relative stereo) [compound 171], the IC50 was 8300 nM.

Take `CSCCNC1CCC(Oc2ccc3c(c2)CCC(c2ccccc2)O3)CC1` (stereo not shown) [compound 111]: the IC50 amounted to 600 nM. Take `CCC(COC)NC1CCC(Oc2ccc3c(c2)CCC(c2ccccc2C)O3)CC1` (stereo not shown) [compound 195]: the inhibition at 10 µM (read-out: Inhibition in % at 10 μM (NCX1rv)) stood at 96%. Consider `N[C@@H](CO)C(=O)N[C@H]1CC[C@H](Oc2ccc3c(c2)CCC(c2ccccc2)O3)CC1` (stereo partly shown) [compound 181, hydrochloride], for which the IC50 worked out at 300 nM. Consider `COCCNC1CCC(Oc2ccc3c(c2)CCC(c2ccccc2C)O3)CC1` (stereo not shown) [compound 189], for which the inhibition at 10 µM (read-out: NCX1rv inhibition in % at 10 μM) was found to be 100%.

For `NC1(Cc2ccccc2)CCC(Oc2ccc3c(c2)CCC(c2ccccc2)O3)CC1` (single isomer, unassigned) [compound 45, 1-Benzyl-4-(2-phenylchroman-6-yloxy)-cyclohexylamine, stereoisomeric mixture 1], the IC50 amounted to 22000 nM. Regarding `Fc1ccccc1C1CCc2cc(OC3CCC(NCCN4CCOCC4)CC3)ccc2O1` (stereo not shown) [compound 224], the IC50 is 3500 nM. On the same count and under the same terms, then `Clc1ccc(CN[C@H]2CC[C@H](Oc3ccc4c(c3)CCC(c3ccccc3)O4)CC2)s1` (stereo partly drawn) [compound 69, N-(5-Chloro-thiophen-2-ylmethyl)-[trans-4-(2-phenylchroman-6-yloxy)]-cyclohexylamine], with 1300 nM; and `COc1c(F)cccc1C1CCc2cc(OC3CCC(C(=O)NCc4ccno4)CC3)ccc2O1` (stereo not shown) [compound 301], with 200 nM; and “N-(2-Methoxyethyl)-4-(2-phenylchroman-6-yloxy)-cyclohexylamine [compound 132]”, with 700 nM.

Take `Cc1cccc(C)c1C1CCc2cc(O[C@H]3CC[C@H](N)CC3)ccc2O1` (relative stereo) [compound 168, hydrochloride]: the IC50 is 4000 nM. With `Cn1cncc1CN[C@H]1CC[C@H](Oc2ccc3c(c2)CCC(c2ccccc2)O3)CC1` (stereo partly drawn) [compound 57, N-(3-Methylimidazol-4-ylmethyl)-[trans-4-(2-phenylchroman-6-yloxy)]-cyclohexylamine], the concentration for half-maximal inhibition (IC50) amounted to 500 nM.

In the case of `Cc1cc2c(cc1OC1CCC(C(=O)NCc3ccno3)CC1)CCC(c1ccccc1C)O2` (stereo not shown) [compound 289], the IC50 worked out at 1300 nM.

Turning to “N-((S)-2-Methoxy-1-methyl-ethyl)-4-(2-phenylchroman-6-yloxy)-cyclohexylamine [compound 140]”, the IC50 is 1400 nM.

Regarding `Cc1ccccc1C1CCc2cc(O[C@H]3CC[C@H](NC(=O)CCn4cccn4)CC3)ccc2O1` (relative stereo) [compound 153], the IC50 was determined as 1200 nM.

Turning to `Cc1cc(CC(=O)N[C@H]2CC[C@H](Oc3ccc4c(c3)CCC(c3ccccc3)O4)CC2)on1` (relative stereo) [compound 25], the IC50 was determined as 200 nM. With “N-(3,3-Dimethylbutyl)-4-(2-phenylchroman-6-yloxy)-cyclohexylamine [compound 152]”, the IC50 is 1400 nM. For `O=C(N[C@H]1CC[C@H](Oc2ccc3c(c2)CCC(c2ccccc2F)O3)CC1)C1CCC1` (stereo partly shown) [compound 244], the IC50 was found to be 100 nM. Consider `CC(C)(C)OCCCNC1CCC(Oc2ccc3c(c2)CCC(c2ccccc2)O3)CC1` (stereo not shown) [compound 122], for which the IC50 was 1200 nM.

With `Cc1cc(C)n(CC(=O)N[C@H]2CC[C@H](Oc3ccc4c(c3)CCC(c3ccccc3)O4)CC2)n1` (relative stereo) [compound 41], the IC50 is 300 nM. The same measure, in the same setting: the figure for `CCn1nccc1CNC1CCC(Oc2ccc3c(c2)CCC(c2ccccc2)O3)CC1` (stereo not shown) [compound 76] is 1000 nM. Turning to `FC(F)(F)CCN[C@H]1CC[C@H](Oc2ccc3c(c2)CCC(c2ccccc2)O3)CC1` (relative stereo) [compound 54], the IC50 worked out at 600 nM.

On to `O=C(N[C@H]1CC[C@H](Oc2ccc3c(c2)CCC(c2ccccc2)O3)CC1)C1CC1(F)F` (relative stereo) [compound 32], for which the IC50 stood at 100 nM.

Take `CC(C)SCCNC1CCC(Oc2ccc3c(c2)CCC(c2ccccc2)O3)CC1` (stereo not shown) [compound 119]: the IC50 worked out at 1100 nM. On to “4-(2-Phenylchroman-6-yloxy)-N-(2-piperidin-1-ylethyl)cyclohexylamine [compound 145]”, for which the IC50 was found to be 2100 nM. Take `OCCNC1CCC(Oc2ccc3c(c2)CCC(c2ccccc2)O3)CC1` (stereo not shown) [compound 15]: the IC50 came to 200 nM. In the case of `Cc1cccc(C)c1C1CCc2cc(OC3CCC(C(=O)NCc4ccno4)CC3)ccc2O1` (stereo not shown) [compound 167], the IC50 came out at 7700 nM. On the same count and under the same terms, the figure for `Cc1cccc(C)c1C1CCc2cc(OC3CCC(C(=O)NCCO)CC3)ccc2O1` (stereo not shown) [compound 166] is 6200 nM; for `Fc1ccccc1C1CCc2cc(OC3CCC(NC4CC4)CC3)ccc2O1` (stereo not shown) [compound 212] it is 1700 nM; for `COCCC(=O)N[C@H]1CC[C@H](Oc2ccc3c(c2)CCC(c2ccccc2)O3)CC1` (relative stereo) [compound 30] it is 300 nM. Turning to `Cc1c(F)cccc1C1CCc2cc(OC3CCC(C(=O)NC[C@@H]4CCCC[C@H]4O)CC3)ccc2O1` (stereo partly shown) [compound 284], the IC50 worked out at 800 nM. For the compound `Cc1ccccc1C1CCc2cc(O[C@H]3CC[C@@H](C(=O)Nc4ccccn4)CC3)ccc2O1` (relative stereo) [compound 265], the IC50 worked out at 400 nM. For `OC1CCC(Oc2ccc3c(c2)CCC(c2ccccc2)O3)CC1` (stereo not shown) [compound 74, 4-(2-Phenylchroman-6-yloxy)cyclohexanol], the IC50 stood at 300 nM. Take `Cc1n[nH]c(C)c1CCC(=O)N[C@H]1CC[C@H](Oc2ccc3c(c2)CCC(c2ccccc2F)O3)CC1` (relative stereo) [compound 234]: the IC50 was 100 nM.

For `CC(C)N1CCC(CNC2CCC(Oc3ccc4c(c3)CCC(c3ccccc3)O4)CC2)CC1` (stereo not shown) [compound 118], the IC50 was 2100 nM.

As usually defined, the IC50 is the concentration that gives 50% inhibition. Usually inhibition stands for the drop in the measured response relative to a control, in per cent.
